Data published in US20170266237A1, “Generation of Brown Adipose Tissue (BAT) from Mesenchymal Cells” (National University of Singapore, priority 2012, published 2017).

Tests used:
Assay type in all cases: cell-based, human
[1] = system: adipogenically induced mesenchymal stem cells; experiment: Nile Red adherent cytometry of cytoplasmic lipid accumulation / lipolysis; conditions: for lipolysis after isoproterenol (emptying of lipid droplets): 16 hrs of 5 μM isoproterenol, white and brown adipogenically induced MSCs
Protocol: b) Adipogenic Induction of Mesenchymal Stem Cells (MSC). MSCs were seeded at an initial density of about 10.5×10^4 cells/cm^2 in well plates and grown to confluence. Adipogenic differentiation was induced via three cycles of 4 days of induction, followed by 3 days of maintenance. The basal media used in the differentiation process composed of high glucose Dulbecco's modified Eagle's medium (HG DMEM, Gibco) supplemented with Glutamax, 10% fetal bovine serum, 100 units/ml penicillin and […] streptomycin The standard white adipogenic induction media is supplemented with 3-isobutyl-1methylxanthine (0.5 mM), indomethacin (0.2 mM), dexamethasone (1 μM) and insulin (10 μg/ml). For brown adipocyte differentiation, cells were pre-treated with BMP7 (R&D Systems 354-BP, 125 ng/ml) 3 days prior to induction. The brown adipogenic induction media is supplemented with 3-isobutyl-lmethylxanthine (0.5 mM), indomethacin (0.2 mM), dexamethasone (1 μM), insulin (10 μg/ml), triiodothyronine (1 nM) and Rosiglitazone (1 μM). Basal media alone was used during the maintenance phase. For conditions treated with macromolecular crowding (+MMC), a cocktail of macromolecules (+MMC), consisting of Ficoll 70 (37.5 mg/ml) and Ficoll 400 (25 mg/ml) was added to the basal media (High glucose DMEM, Gibco) throughout the differentiation process (during both induction and maintenance phases).
c) Stimulation with forskolin or isoproterenol. After the 3-week adipogenic differentiation, cells were incubated with 10 μM forskolin (Sigma) or 5 μM isoproterenol (Sigma) for 4 h or 16 h before analysis, to mimic nor-adrenergic stimulation in culture.
d) Nile Red Adherent Cytometry to assess area of cytoplasmic lipid accumulation. After 21 days (corresponding to three complete induction cycles), cell cultures were rinsed with PBS, fixed in 4% formaldehyde (10 min; RT) then co-stained for 30 min with Nile Red (Sigma-Aldrich; 5 μg/ml), for cytoplasmic lipid droplets and 4′,6-diamidino-2-phenylindole (DAPI; 0.5 μg/ml) for nuclear DNA as described previously. Adherent fluorescent cytometry was based on 9 sites per well imaged with a coolSNAP HQ camera attached to a Nikon TE2000 microscope at 2× magnification, covering 83% of total well area. Nile Red was viewed under a rhodamine filter [Ex572 nm/Em630 nm] while DAPI fluorescence was assessed with a DAPI filter [Ex350 nm/Em465 nm]. Measured Nile Red events were thresholded and measured by an image analysis software (MetaMorph 6.3v3). Extent of adipogenic differentiation was quantified by area of Nile Red fluorescence from thresholded events normalized to nuclei count based on detected DAPI fluorescence. End data corresponded to total area of lipid droplets present per well relative to cell number.

[2] = system: UCP1 mRNA; experiment: Quantitative PCR of UCP1 mRNA after forskolin stimulation of adipogenically induced MSCs; conditions: adipogenically induced MSCs stimulated with forskolin
Protocol: b) Adipogenic Induction of Mesenchymal Stem Cells (MSC). MSCs were seeded at an initial density of about 10.5×10^4 cells/cm^2 in well plates and grown to confluence. Adipogenic differentiation was induced via three cycles of 4 days of induction, followed by 3 days of maintenance. The basal media used in the differentiation process composed of high glucose Dulbecco's modified Eagle's medium (HG DMEM, Gibco) supplemented with Glutamax, 10% fetal bovine serum, 100 units/ml penicillin and […] streptomycin The standard white adipogenic induction media is supplemented with 3-isobutyl-1methylxanthine (0.5 mM), indomethacin (0.2 mM), dexamethasone (1 μM) and insulin (10 μg/ml). For brown adipocyte differentiation, cells were pre-treated with BMP7 (R&D Systems 354-BP, 125 ng/ml) 3 days prior to induction. […]
(§1) e) Quantitative PCR to assess expression of pan-adipocyte and brown adipocyte genes. […] Real time quantitative polymerase chain reactions (RT-PCR) were performed and monitored on a real-time PCR instrument (Stratagene) using Maxima™ SYBR Green/ROX qPCR Master Mix (K0222, Fermentas). […] Relative gene expression levels were determined using the ΔΔ-Ct method with the geometric mean of human TATA-box binding protein (TBP) and ribosomal phosphoprotein P0 (RPLP0) levels as an endogenous control.

[3] = system: UCP1 mRNA; experiment: Quantitative PCR of UCP1 mRNA expression in adipogenically induced MSCs; conditions: 3-week adipogenic induction of MSCs
Protocol: a) Mesenchymal Stem Cell Culture. Human bone-marrow derived mesenchymal stem cells (MSCs) were obtained commercially (Cambrex) at passage 2 (p2) and cultured in a basic culture medium composed of low glucose Dulbecco's modified Eagle's medium (LG DMEM, Gibco) supplemented with Glutamax, 10% fetal bovine serum, 100 units/ml penicillin and […] streptomycin. Cells were maintained at 37° C. in a humidified atmosphere of 5% CO2, with medium change twice per week. To prevent spontaneous differentiation, cells were maintained at subconfluent levels prior to being detached using TrypLE™ Express (Gibco), passaged at 1:3 and cultured to generate subsequent passages. Directed differentiation was carried out with cells between passage 6 (p6) and 8 (p8).
b) Adipogenic Induction of Mesenchymal Stem Cells (MSC). […]
as §1

Molecule: C=C[C@@]1(C)CC(=O)[C@]2(O)[C@@]3(C)[C@@H](O)CCC(C)(C)[C@@H]3[C@H](O)[C@H](OC(C)=O)[C@@]2(C)O1 [forskolin]
- reduction of Nile Red positive area (factor) ([1]; brown induction protocol, 16 hrs after forskolin stimulus): 2.14
- reduction of hypothetical triglyceride volume (factor) ([1]; modeled as sphere, brown induced MSCs under crowding, after forskolin treatment): 3
- additional UCP1 mRNA upregulation on forskolin stimulation [2]: 10 fold

Molecule: CC(C)NCC(O)c1ccc(O)c(O)c1 (stereo not drawn) [isoproterenol]
- lipolysis after isoproterenol (emptying of lipid droplets) [1]: leads to emptying of lipid droplets
- lipolysis after isoproterenol (emptying of lipid droplets) ([1]; listed as Isoproterenol): stronger lipolytic effect on adipocytes that had been differentiated under a BAT induction protocol

B1: BMP7: bone morphogenetic protein, R&D Systems 354-BP, 125 ng/ml pre-treatment 3 days prior to induction (protein, UniProt P18075 293-431, looked up)
Bone morphogenetic protein 7: STGSKQRSQNRSKTPKNQEALRMANVAENSSSDQRQACKKHELYVSFRDLGWQDWIIAPEGYAAYYCEGECAFPLNSYMNATNHAIVQTLVHFINPETVPKPCCAPTQLNAISVLYFDDSSNVILKKYRNMVVRACGCH
- effect on UCP1 mRNA expression (in words) [3]: only modestly increases
